Data as given in patent publication US20020152499A1, “Gene encoding a protein involved in the signal transduction cascade leading to systemic acquired resistance in plants” (priority 1996, published 2002).

Columns and labels:
[1] = tested on: Peronospora parasitica isolate Emwa; experiment: Infection severity rating after inoculation with Peronospora parasitica (Emwa) following chemical pretreatment
Protocol: (§1) Wild-type seeds and seeds for each of the nim1 alleles (nim1-1,-2,-3,-4,-5,-6) were sown onto MetroMix 300 growing media, covered with a transparent plastic dome, and placed at 4° C. in the dark for 3 days. After 3 days of 4° C. treatment, the plants were moved to a phytotron for 2 weeks. By approximately 2 weeks post-planting, germinated seedlings had produced 4 true leaves. Plants were then treated with H2O, 5 mM SA, 300 μM BTH, or 300 μM INA. Chemicals were applied as a fine mist to completely cover the seedlings using a chromnister. Water control plants were returned to the growing phytotron while the chemically treated plants were held in a separate but identical phytotron. At 3 days post-chemical application, water and chemically treated plants were inoculated with the compatible ‘Emwa’ isolate. ‘Noco’ inoculation was conducted on water treated plants only. Following inoculation, plants were covered with a clear plastic dome to maintain high humidity required for successful P. parasitica infection and placed in a growing chamber with 19° C. day/17° C. night temperatures and 8 h light/16 h dark cycles.
WsWT indicates the Ws wild type parent line in which the nim1 alleles were found. The various nim1 alleles are indicated in the table and the NahG plant is indicated also.
NahG plants therefore serve as a kind of universal susceptibility control.

[2] = tested on: Peronospora parasitica isolate Emwa; experiment: Percent of plants showing P. parasitica Emwa surface conidia after chemical pretreatment; settings: for Percent Infection - Emwa: P. parasitica inoculated 3 days after chemical treatment
Protocol: Mutant plants were treated with SA, INA, and BTH and then assayed for resistance to Peronospora parasitica.P. parasitica isolate ‘Emwa’ is a Pp. isolate that is compatible in the Ws ecotype.
as §1
To determine the relative strength of the different nim1 alleles, each mutant was microscopically analyzed at various timepoints after inoculation for the growth of P. parasitica under normal growth conditions and following pretreatment with either SA, INA, or BTH. Under magnification, sporulation of the fungus could be observed at very early stages of disease development. The percentage of plants/pot showing sporulation at 5d, 6d, 7d, 1 id and 14d after inoculation was determined and the density of sporulation was also recorded.
P. parasitica was inoculated onto the plants three days after water or chemical treatment.

PR-1, PR-2 and PR-5 = experiment: Northern analysis of SAR gene expression after chemical treatment
Protocol: Plants were then treated with H2O, 5 mM SA, 300 FM BTH, or 300 FM INA. Chemicals were applied as a fine mist to completely cover the seedlings using a chromister. Water control plants were returned to the growing phytotron while the chemically treated plants were held in a separate but identical phytotron. At 3 days post-chemical application, water and chemically treated plants were inoculated with the compatible Emwa isolate. Noco inoculation was conducted on water treated plants only. Following inoculation, plants were covered with a clear plastic dome to maintain high humidity required for successful P. parasitica infection and placed in a growing chamber with 19° C. day/17° C. night temperatures and 8 h light/16 h dark cycles. RNA was extracted from plants 3 days after either water or chemical treatment, or 14 days after inoculation with the compatible P. parasitica Emwa isolate. The RNA was size-fractionated by agarose gel electrophoresis and transferred to GeneScreenPlus membranes (DuPont).
In FIG. 1, replicate blots were hybridized to Arabidopsis gene probes PR-1, PR-2 and PR-5 as described in Uknes et al. (1992).

NIM1 gene = experiment: RNA gel blot of NIM1 (gene region 2) mRNA after chemical treatment; settings: wild-type Ws plants (FIG. 7)
Description: To ascertain which gene region contained the NIM1 gene, gel blots containing RNA isolated from leaf tissue of Ws-0 and the different nim1 mutants following either water or chemical treatment were probed with DNA derived from each of the four gene regions. In these experiments, care was taken to label probes to high specific activity and autoradiographs were exposed for more than 1 week.
Identical Northern blots were made from RNA samples isolated from water-, SA-, BTH- and INA-treated Ws and nim1 lines as previously described in Delaney, et al. (1995). These blots were hybridized with PCR products generated from the four gene regions identified in the 9.9 kb NIM1 gene region (SEQ ID NO:1).
The same RNA samples produced in the induction studies (FIG. 3) were also probed with the NIM1 gene using a full4ength cDNA clone as a probe.

CSC(=O)c1cccc2nnsc12 [BTH]
response of plants to the inducer (disease resistance) ([1]; NahG plants): very good response | Infection Severity - Emwa ([1]; NahG plants, Day 7 after inoculation): 0 | Infection Severity - Emwa ([1]; NahG plants, Day 11 after inoculation): 0 | Infection Severity - Emwa ([1]; Ws Wt plants, Day 7 after inoculation): 0 | Infection Severity - Emwa ([1]; Ws Wt plants, Day 11 after inoculation): 0 | induced resistance to Emwa ([1]; Ws plants): very good resistance | Infection Severity - Emwa ([1]; nim1-1 plants, Day 7 after inoculation): 2.5 | Infection Severity - Emwa ([1]; nim1-1 plants, Day 11 after inoculation): 4 | Infection Severity - Emwa ([1]; nim1-2 plants, Day 7 after inoculation): 3.5 | Infection Severity - Emwa ([1]; nim1-2 plants, Day 11 after inoculation): 4 | Infection Severity - Emwa ([1]; nim1-3 plants, Day 7 after inoculation): 3 | Infection Severity - Emwa ([1]; nim1-3 plants, Day 11 after inoculation): 3.5 | Infection Severity - Emwa ([1]; nim1-4 plants, Day 7 after inoculation): 4 | Infection Severity - Emwa ([1]; nim1-4 plants, Day 11 after inoculation): 5 | Infection Severity - Emwa ([1]; nim1-5 plants, Day 7 after inoculation): 1.5 | Infection Severity - Emwa ([1]; nim1-5 plants, Day 11 after inoculation): 2 | Infection Severity - Emwa ([1]; nim1-6 plants, Day 7 after inoculation): 3 | Infection Severity - Emwa ([1]; nim1-6 plants, Day 11 after inoculation): 4 | Percent Infection - Emwa ([2]; Ws WT plants, Day 0): 0% | Percent Infection - Emwa ([2]; Ws WT plants, Day 5): 0% | Percent Infection - Emwa ([2]; Ws WT plants, Day 6): 0% | Percent Infection - Emwa ([2]; Ws WT plants, Day 7): 0% | Percent Infection - Emwa ([2]; Ws WT plants, Day 11): 0% | Percent Infection - Emwa ([2]; nim1-1 plants, Day 0): 0% | Percent Infection - Emwa ([2]; nim1-1 plants, Day 5): 1% | Percent Infection - Emwa ([2]; nim1-1 plants, Day 6): 5% | Percent Infection - Emwa ([2]; nim1-1 plants, Day 7): 30% | Percent Infection - Emwa ([2]; nim1-1 plants, Day 11): 100% | Percent Infection - Emwa ([2]; nim1-2 plants, Day 0): 0% | Percent Infection - Emwa ([2]; nim1-2 plants, Day 5): 0% | Percent Infection - Emwa ([2]; nim1-2 plants, Day 6): 25% | Percent Infection - Emwa ([2]; nim1-2 plants, Day 7): 90% | Percent Infection - Emwa ([2]; nim1-2 plants, Day 11): 100% | Percent Infection - Emwa ([2]; nim1-3 plants, Day 0): 0% | Percent Infection - Emwa ([2]; nim1-3 plants, Day 5): 15% | Percent Infection - Emwa ([2]; nim1-3 plants, Day 6): 70% | Percent Infection - Emwa ([2]; nim1-3 plants, Day 7): 100% | Percent Infection - Emwa ([2]; nim1-3 plants, Day 11): 100% | Percent Infection - Emwa ([2]; nim1-4 plants, Day 0): 0% | Percent Infection - Emwa ([2]; nim1-4 plants, Day 5): 80% | Percent Infection - Emwa ([2]; nim1-4 plants, Day 6): 100% | Percent Infection - Emwa ([2]; nim1-4 plants, Day 7): 100% | Percent Infection - Emwa ([2]; nim1-4 plants, Day 11): 100% | Percent Infection - Emwa ([2]; nim1-5 plants, Day 0): 0% | Percent Infection - Emwa ([2]; nim1-5 plants, Day 5): 0% | Percent Infection - Emwa ([2]; nim1-5 plants, Day 6): 1% | Percent Infection - Emwa ([2]; nim1-5 plants, Day 7): 1% | Percent Infection - Emwa ([2]; nim1-5 plants, Day 11): 10% | Percent Infection - Emwa ([2]; nim1-6 plants, Day 0): 0% | Percent Infection - Emwa ([2]; nim1-6 plants, Day 5): 1% | Percent Infection - Emwa ([2]; nim1-6 plants, Day 6): 90% | Percent Infection - Emwa ([2]; nim1-6 plants, Day 7): 100% | Percent Infection - Emwa ([2]; nim1-6 plants, Day 11): 100% | activity in nim1 plants ([2]; nim1 plants): inactive | SAR and SAR gene expression (PR-1, PR-2, PR-5) (PR-1, PR-2 and PR-5; nim1 plants, RNA gel blots FIGS. 1-3): induce neither SAR nor SAR gene expression | PR-1 mRNA accumulation (PR-1, PR-2 and PR-5; wild-type plants, RNA 3 days after chemical treatment (FIG. 3)): accumulates to high levels | NIM1 (gene region 2) mRNA (NIM1 gene): induced
